Experimental data reported in ChEMBL document CHEMBL5104170, “Discovery of vimseltinib (DCC-3014), a highly selective CSF1R switch-control kinase inhibitor, in clinical development for the treatment of Tenosynovial Giant Cell Tumor (TGCT)” (Bioorg Med Chem Lett, 2022).
Values after ≈ are worked out from the molar mass of the structure shown. Blank lines part the entries; values can stand above or below the compound they belong to.

Tests used:
cells [1] = conditions: Homo sapiens, Osteoclast
Description: Inhibition of RANKL-induced human osteoclast precursor cells differentiation in presence of human CSF1 and measured by tartrate-resistant acid phosphatase activity assay

[2] = Inhibition of His-Glu tagged recombinant human KIT Q694-T753 deletion mutant (565 to 935 residues) measured by spectrophotometric analysis
NFS-60 = test: cells; conditions: Mus musculus, NFS-60, 72 h
Description: Antiproliferative activity against CSF1-treated mouse NFS-60 cells measured after 72 hrs by resazurin method

[3] = In vivo inhibition of CSF1R in CSF1-stimulated DBA/1 mouse assessed as modulation of cFOS mRNA at 7.5 mg/kg, po administered once daily for 6 days followed by CSF1 administration through intravenously and measured at 8 hrs by RT-PCR method; assay type: functional; conditions: DBA/1, 144 h, time 6 day
[4] = Plasma concentration in DBA/1 mouse at 7.5 mg/kg, po administered once daily for 6 days and measured at 18 hrs; assay type: ADME, organism-based; conditions: time 6 day
[5] = Plasma concentration in DBA/1 mouse at 7.5 mg/kg, po administered once daily for 6 days and measured at 12 hrs; assay type: ADME, organism-based; conditions: time 6 day
[6] = In vivo inhibition of CSF1R in CSF1-stimulated DBA/1 mouse assessed as modulation of cFOS mRNA at 7.5 mg/kg, po administered once daily for 6 days followed by CSF1 administration through intravenously and measured at 4 hrs by RT-PCR method; assay type: functional; conditions: DBA/1, 144 h, time 6 day
[7] = Plasma concentration in DBA/1 mouse at 7.5 mg/kg, po administered once daily for 6 days and measured at 6 hrs; assay type: ADME, organism-based; conditions: time 6 day
[8] = In vivo inhibition of CSF1R in CSF1-stimulated DBA/1 mouse assessed as modulation of cFOS mRNA at 7.5 mg/kg, po administered once daily for 6 days followed by CSF1 administration through intravenously and measured at 18 hrs by RT-PCR method; assay type: functional; conditions: DBA/1, 144 h, time 6 day
[9] = Plasma concentration in DBA/1 mouse at 7.5 mg/kg, po administered once daily for 6 days and measured at 8 hrs; assay type: ADME, organism-based; conditions: time 6 day
[10] = In vivo inhibition of CSF1R in CSF1-stimulated DBA/1 mouse assessed as modulation of cFOS mRNA at 7.5 mg/kg, po administered once daily for 6 days followed by CSF1 administration through intravenously and measured at 6 hrs by RT-PCR method; assay type: functional; conditions: DBA/1, 144 h, time 6 day
[11] = In vivo inhibition of CSF1R in CSF1-stimulated DBA/1 mouse assessed as modulation of cFOS mRNA at 7.5 mg/kg, po administered once daily for 6 days followed by CSF1 administration through intravenously and measured at 2 hrs by RT-PCR method; assay type: functional; conditions: DBA/1, 144 h, time 6 day
[12] = Plasma concentration in DBA/1 mouse at 7.5 mg/kg, po administered once daily for 6 days and measured at 2 hrs; assay type: ADME, organism-based; conditions: time 6 day
[13] = In vivo inhibition of CSF1R in CSF1-stimulated DBA/1 mouse assessed as modulation of cFOS mRNA at 7.5 mg/kg, po administered once daily for 6 days followed by CSF1 administration through intravenously and measured at 12 hrs by RT-PCR method; assay type: functional; conditions: DBA/1, 144 h, time 6 day
[14] = In vivo inhibition of CSF1R in CSF1-stimulated DBA/1 mouse assessed as modulation of cFOS mRNA at 7.5 mg/kg, po administered once daily for 6 days followed by CSF1 administration through intravenously and measured at 24 hrs by RT-PCR method; assay type: functional; conditions: DBA/1, 144 h, time 6 day
[15] = Plasma concentration in DBA/1 mouse at 7.5 mg/kg, po administered once daily for 6 days and measured at 24 hrs; assay type: ADME, organism-based; conditions: time 6 day
[16] = Plasma concentration in DBA/1 mouse at 7.5 mg/kg, po administered once daily for 6 days and measured at 4 hrs; assay type: ADME, organism-based; conditions: time 6 day
[17] = Volume of distribution in dog at 10 mg/kg, po; assay type: ADME, organism-based, Canis lupus familiaris; conditions: in vivo
[18] = Plasma protein binding in rat; assay type: ADME, cell-free; conditions: read-out: PPB (converted)
[19] = Oral bioavailability in rat at 10 mg/kg; assay type: ADME, organism-based; conditions: in vivo
[20] = Tmax in rat at 10 mg/kg, po; assay type: ADME, organism-based; conditions: in vivo
[21] = Metabolic stability in human liver microsomes assessed as compound remaining at 60 mins; assay type: ADME, Microsome; conditions: read-out: Stability
[22] = Clearance in dog at 10 mg/kg, po; assay type: ADME, organism-based, Canis lupus familiaris; conditions: in vivo
[23] = Metabolic stability in mouse liver microsomes assessed as compound remaining at 60 mins; assay type: ADME, Microsome; conditions: read-out: Stability
[24] = AUC (0 to 24 hrs) in rat at 10 mg/kg, po; assay type: ADME, organism-based; parameters: time < 24 hr, dose 10 mg/kg, route po; conditions: in vivo
[25] = Cmax in rat at 10 mg/kg, po; assay type: ADME, organism-based; parameters: dose 10 mg/kg, route po; conditions: in vivo
[26] = Tmax in dog at 10 mg/kg, po; assay type: ADME, organism-based, Canis lupus familiaris; conditions: in vivo
cells [27] = conditions: Homo sapiens
Description: Inhibition of ABL (unknown origin) in presence of 4 mM ATP measured by cell-based spectrophotometric assay

[28] = Half-life in dog at 10 mg/kg, po; assay type: ADME, organism-based, Canis lupus familiaris; conditions: in vivo
[29] = Half-life in rat at 10 mg/kg, po; assay type: ADME, organism-based; conditions: in vivo
[30] = AUC (0 to 24 hrs) in dog at 10 mg/kg, po; assay type: ADME, organism-based, Canis lupus familiaris; parameters: time < 24 hr, dose 10 mg/kg, route po; conditions: in vivo
[31] = Metabolic stability in rat liver microsomes assessed as compound remaining at 60 mins; assay type: ADME, Microsome; conditions: read-out: Stability
[32] = Aqueous solubility of compound at pH 7.4; assay type: physicochemical
hERG (KCNH2) = hERG (KCNH2) (Homo sapiens, UniProt Q12809); test: Inhibition of hERG measured by fluorescence polarization assay; assay type: toxicity
[33] = Clearance in rat at 10 mg/kg, po; assay type: ADME, organism-based; conditions: in vivo
[34] = Cmax in dog at 10 mg/kg, po; assay type: ADME, organism-based, Canis lupus familiaris; parameters: dose 10 mg/kg, route po; conditions: in vivo
[35] = Metabolic stability in dog liver microsomes assessed as compound remaining at 60 mins; assay type: ADME, Canis lupus familiaris, Microsome; conditions: read-out: Stability
[36] = target: Mast/stem cell growth factor receptor Kit (Homo sapiens, UniProt P10721); test: Inhibition of KIT (unknown origin) in presence of 4 mM ATP measured by cell-based spectrophotometric assay
[37] = Oral bioavailability in dog at 10 mg/kg; assay type: ADME, organism-based, Canis lupus familiaris; conditions: in vivo
[38] = Permeability across apical to basolateral side in human Caco-2 cells; assay type: ADME, cell-based; conditions: read-out: permeability
[39] = Volume of distribution in rat at 10 mg/kg, po; assay type: ADME, organism-based; conditions: in vivo
[40] = Plasma protein binding in dog; assay type: ADME, cell-free, Canis lupus familiaris; conditions: read-out: PPB (converted)
[41] = Plasma protein binding in human; assay type: ADME, cell-free; conditions: read-out: PPB (converted)
[42] = Plasma protein binding in mouse; assay type: ADME, cell-free; conditions: read-out: PPB (converted)

Mast/stem cell growth factor receptor Kit, sequence (P10721 whole entry): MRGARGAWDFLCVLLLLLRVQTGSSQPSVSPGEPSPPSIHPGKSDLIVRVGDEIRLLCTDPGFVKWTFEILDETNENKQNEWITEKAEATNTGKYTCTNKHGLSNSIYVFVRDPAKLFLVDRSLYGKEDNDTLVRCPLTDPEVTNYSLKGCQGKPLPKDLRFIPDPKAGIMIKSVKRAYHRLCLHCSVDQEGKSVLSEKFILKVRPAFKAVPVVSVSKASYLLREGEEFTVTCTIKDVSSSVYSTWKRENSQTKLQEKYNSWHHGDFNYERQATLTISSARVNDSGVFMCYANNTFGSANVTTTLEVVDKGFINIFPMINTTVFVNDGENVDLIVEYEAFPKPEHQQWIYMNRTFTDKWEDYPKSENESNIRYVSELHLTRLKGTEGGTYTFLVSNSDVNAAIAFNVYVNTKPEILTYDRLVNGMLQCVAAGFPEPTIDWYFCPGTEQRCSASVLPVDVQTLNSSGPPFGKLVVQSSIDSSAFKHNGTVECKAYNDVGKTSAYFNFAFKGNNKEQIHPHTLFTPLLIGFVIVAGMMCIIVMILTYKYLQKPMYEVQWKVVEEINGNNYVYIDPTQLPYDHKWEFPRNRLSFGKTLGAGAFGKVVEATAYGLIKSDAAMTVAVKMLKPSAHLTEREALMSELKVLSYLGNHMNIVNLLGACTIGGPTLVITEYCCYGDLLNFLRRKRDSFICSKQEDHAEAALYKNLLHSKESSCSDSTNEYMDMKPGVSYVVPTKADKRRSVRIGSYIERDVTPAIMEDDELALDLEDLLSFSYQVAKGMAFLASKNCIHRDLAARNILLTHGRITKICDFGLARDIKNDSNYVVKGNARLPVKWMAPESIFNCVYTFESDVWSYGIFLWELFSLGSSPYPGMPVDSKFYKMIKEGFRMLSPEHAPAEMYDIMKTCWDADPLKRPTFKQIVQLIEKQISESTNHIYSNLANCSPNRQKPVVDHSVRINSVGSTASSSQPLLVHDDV
hERG (KCNH2), sequence (Q12809 whole entry): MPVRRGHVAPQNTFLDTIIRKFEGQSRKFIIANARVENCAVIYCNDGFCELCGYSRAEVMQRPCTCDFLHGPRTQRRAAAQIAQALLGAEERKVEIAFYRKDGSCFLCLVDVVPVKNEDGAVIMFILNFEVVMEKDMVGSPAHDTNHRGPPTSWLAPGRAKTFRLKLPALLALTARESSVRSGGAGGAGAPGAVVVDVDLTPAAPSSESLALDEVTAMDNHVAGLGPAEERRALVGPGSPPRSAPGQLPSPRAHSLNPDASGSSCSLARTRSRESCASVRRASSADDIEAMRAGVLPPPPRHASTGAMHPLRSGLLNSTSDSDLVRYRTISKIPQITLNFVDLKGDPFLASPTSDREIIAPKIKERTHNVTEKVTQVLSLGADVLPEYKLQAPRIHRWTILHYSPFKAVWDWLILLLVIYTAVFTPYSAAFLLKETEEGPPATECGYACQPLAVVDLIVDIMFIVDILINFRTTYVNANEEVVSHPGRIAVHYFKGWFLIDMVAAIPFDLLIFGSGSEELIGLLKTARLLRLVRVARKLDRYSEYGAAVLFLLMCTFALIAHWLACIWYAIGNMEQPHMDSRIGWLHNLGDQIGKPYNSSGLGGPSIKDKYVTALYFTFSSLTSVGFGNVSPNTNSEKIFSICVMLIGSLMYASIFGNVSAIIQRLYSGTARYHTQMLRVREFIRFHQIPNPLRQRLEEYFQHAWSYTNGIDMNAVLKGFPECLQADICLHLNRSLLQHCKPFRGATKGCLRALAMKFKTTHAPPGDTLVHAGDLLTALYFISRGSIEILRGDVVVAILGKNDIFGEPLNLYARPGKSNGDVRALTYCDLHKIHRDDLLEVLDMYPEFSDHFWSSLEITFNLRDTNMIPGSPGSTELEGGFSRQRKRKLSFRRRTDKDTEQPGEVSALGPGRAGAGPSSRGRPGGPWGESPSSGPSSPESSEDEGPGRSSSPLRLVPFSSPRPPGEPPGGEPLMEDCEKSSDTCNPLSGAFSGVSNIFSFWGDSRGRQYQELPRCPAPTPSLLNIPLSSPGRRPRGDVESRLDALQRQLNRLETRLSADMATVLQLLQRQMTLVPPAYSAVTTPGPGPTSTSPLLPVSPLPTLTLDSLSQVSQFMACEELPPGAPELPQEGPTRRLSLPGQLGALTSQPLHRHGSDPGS

Compound: CN(C)CC(=O)N1CCC(c2ccc(NC(=O)c3nc(C#N)c[nH]3)c(C3=CCCCC3)c2)CC1
IC50 (cells [1]): 1.7 nM

Compound: Cc1nc(-c2cnc(N3CCCC3)[nH]c2=O)ccc1Oc1ccnc(-c2cnn(C)c2)c1
IC50 [2]: > 3300 nM
IC50 (NFS-60): 56 nM

Compound: Cc1nc(-c2cnc(N3CCOCC3)[nH]c2=O)ccc1Oc1ccnc(-c2cnn(C)c2)c1
IC50 [2]: > 3300 nM
IC50 (NFS-60): 494 nM

Compound: Cc1nc(-c2cnc(N(C)C)[nH]c2=O)ccc1Oc1ccnc(-c2cnn(C)c2)c1
IC50 [2]: > 3300 nM
IC50 (NFS-60): 716 nM
IC50 (cells [1]): 17 nM

Compound: Cc1cc(-c2cnc(N3CCCC3)[nH]c2=O)ncc1Oc1ccnc(-c2cnn(C)c2)c1
IC50 [2]: 473 nM
IC50 (NFS-60): 16 nM

Compound: Cc1nc(-c2cnc(NC3CC3)n(C)c2=O)ccc1Oc1ccnc(-c2cnn(C)c2)c1
IC50 [2]: 1700 nM
IC50 (NFS-60): 18 nM
IC50 (cells [1]): 7.4 nM

Compound: Cc1nc(-c2cnc(N3CCCCC3)[nH]c2=O)ccc1Oc1ccnc(-c2cnn(C)c2)c1
IC50 [2]: > 3300 nM
IC50 (NFS-60): 30 nM

Compound: Cc1nc(-c2cnc(NC3CCOCC3)[nH]c2=O)ccc1Oc1ccnc(-c2cnn(C)c2)c1
IC50 [2]: 3200 nM
IC50 (NFS-60): 413 nM

Compound: Cc1nc(-c2cnc(NC3CCCC3)[nH]c2=O)ccc1Oc1ccnc(-c2cnn(C)c2)c1
IC50 [2]: 990 nM
IC50 (NFS-60): 2.6 nM

Compound: CCNc1ncc(-c2ccc(Oc3ccnc(-c4cnn(C)c4)c3)cn2)c(=O)[nH]1
IC50 [2]: 142 nM
IC50 (NFS-60): 97 nM

Compound: FC(F)(F)c1ccc(CNc2ccc(Cc3c[nH]c4ncc(Cl)cc34)cn2)cn1 [PEXIDARTINIB]
IC50 (NFS-60): 33 nM

Compound: Cc1nc(-c2cnc(NC(C)C)n(C)c2=O)ccc1Oc1ccnc(-c2cnn(C)c2)c1 [VIMSELTINIB]
Vd [17]: 1.33 L/kg
fraction unbound [18]: 0.006
inhibition in vivo at 7.5 mg/kg [3]: 92%
bioavailability [19]: 76%
Tmax [20]: 2.67 h
remaining at 1 h [21]: 100%
concentration at 144 h [4]: 1310 ng/mL
concentration at 144 h [5]: 1970 ng/mL
inhibition in vivo at 7.5 mg/kg [6]: 93%
concentration at 144 h [7]: 2360 ng/mL
CL [22]: 2.5 mL/min/kg
inhibition in vivo at 7.5 mg/kg [8]: 89%
concentration at 144 h [9]: 3030 ng/mL
remaining at 1 h [23]: 94.8%
AUC [24]: 38.009 µM·h
Cmax [25]: 3740 nM
Tmax [26]: 1.67 h
inhibition in vivo at 7.5 mg/kg [10]: 88%
inhibition in vivo at 7.5 mg/kg [11]: 84%
concentration at 144 h [12]: 4450 ng/mL
IC50 (cells [27]): 2900 nM
half-life [28]: 10.6 h
t1/2 [29]: 19.8 h
AUC [30]: 5.432 µM·h
remaining at 1 h [31]: 95.2%
solubility [32]: 200 µM (≈ 86.3 µg/mL)
inhibition in vivo at 7.5 mg/kg [13]: 90%
IC50 [2]: 476 nM
IC20 (hERG (KCNH2)): 20000 nM
CL [33]: 0.5 mL/min/kg
Cmax [34]: 1010 nM
remaining at 1 h [35]: 95.2%
inhibition in vivo at 7.5 mg/kg [14]: 79%
IC50 [36]: 1600 nM
concentration at 144 h [15]: 1380 ng/mL
bioavailability [37]: 33%
IC50 (NFS-60): 18 nM
Papp A→B [38]: 16 ×10⁻⁶ cm/s
Vd [39]: 0.69 L/kg
fraction unbound [40]: 0.033
fraction unbound [41]: 0.033
fraction unbound [42]: 0.026
IC50 (cells [1]): 9.3 nM
concentration at 144 h [16]: 4260 ng/mL

Now from value to compound, other results behind:

IC50 [2]: 1500 nM
IC50 (NFS-60): 1200 nM
Compound: CCNc1ncc(-c2ccc(Oc3ccnc(-c4ccc(C)nc4)c3)c(C)n2)c(=O)[nH]1

IC50 [2]: 257 nM
IC50 (NFS-60): 1300 nM
Compound: CNc1ncc(-c2ccc(Oc3ccnc(-c4cnn(C)c4)c3)c(C)n2)c(=O)[nH]1

IC50 [2]: 1300 nM
IC50 (NFS-60): 2800 nM
Compound: CCNc1ncc(-c2ccc(Oc3ccnc(-n4cnc(C)c4)c3)c(C)n2)c(=O)[nH]1

IC50 [2]: 2000 nM
IC50 (NFS-60): 13 nM
Compound: CCn1cc(-c2cc(Oc3ccc(-c4cnc(NC(C)C)[nH]c4=O)nc3C)ccn2)cn1

concentration at 144 h [4]: 21 ng/mL
concentration at 144 h [5]: 20 ng/mL
concentration at 144 h [7]: 451 ng/mL
concentration at 144 h [9]: 360 ng/mL
concentration at 144 h [12]: 696 ng/mL
IC50 [2]: 322 nM
concentration at 144 h [15]: 17 ng/mL
IC50 (NFS-60): 3.1 nM
IC50 (cells [1]): 13 nM
concentration at 144 h [16]: 563 ng/mL
Compound: Cc1nc(-c2cnc(NC(C)C)[nH]c2=O)ccc1Oc1ccnc(-c2cnn(C)c2)c1
inhibition in vivo at 7.5 mg/kg [3]: 47%
inhibition in vivo at 7.5 mg/kg [6]: 55%
inhibition in vivo at 7.5 mg/kg [8]: 11%
inhibition in vivo at 7.5 mg/kg [10]: 22%
inhibition in vivo at 7.5 mg/kg [11]: 36%
inhibition in vivo at 7.5 mg/kg [13]: 14%
inhibition in vivo at 7.5 mg/kg [14]: 16%

IC50 [2]: 7400 nM
IC50 (NFS-60): 127 nM
Compound: CNC(=O)c1cc(Oc2ccc(-c3cnc(NC(C)C)[nH]c3=O)nc2)ccn1

IC50 [2]: 2100 nM
IC50 (NFS-60): 45 nM
IC50 (cells [1]): 18 nM
Compound: CCNc1ncc(-c2ccc(Oc3ccnc(-c4cnn(C)c4)c3)c(C)n2)c(=O)[nH]1

IC50 [2]: > 3300 nM
IC50 (NFS-60): 55 nM
IC50 (cells [1]): 16 nM
Compound: Cc1nc(-c2cnc(NC3CC3)[nH]c2=O)ccc1Oc1ccnc(-c2cnn(C)c2)c1

IC50 [2]: 277 nM
IC50 (NFS-60): 193 nM
Compound: CC(=O)Nc1cc(Oc2ccc(-c3cnc(NC(C)C)[nH]c3=O)nc2C)ccn1
